O=C(O)CNCc1ccccc1
solubility (mole fraction)
Settings | 283.15 K | 288.15 K | 293.15 K | 298.15 K | 303.15 K | 313.15 K | 323.15 K
in 1,4-dioxane | 3.3e-05 | – | 5.5e-05 | – | 8.4e-05 | 0.00015 | 0.000211
in acetone | 7.1e-05 | – | 9.4e-05 | – | 0.000133 | 0.000165 | 0.00024
in acetonitrile | 5e-06 | – | 1.1e-05 | – | 1.7e-05 | 2.8e-05 | 4e-05
in dichloromethane | 9e-06 | 2.1e-05 | 3.4e-05 | 4.2e-05 | 5.7e-05 | – | –
in ethanol | 0.000222 | – | 0.000326 | – | 0.00043 | 0.000526 | 0.000709
in ethyl acetate | 1.1e-05 | – | 3.3e-05 | – | 6.7e-05 | 0.000102 | 0.000173
in isopropanol | 6e-05 | – | 8e-05 | – | 9.6e-05 | 0.00012 | 0.000173
in methanol | 0.00217 | – | 0.00269 | – | 0.00335 | 0.00416 | 0.0053
in n-butanol | 0.000166 | – | 0.000203 | – | 0.000262 | 0.000338 | 0.000397
in n-propanol | 0.000214 | – | 0.000266 | – | 0.000306 | 0.00037 | 0.000456
in water | 0.00909 | – | 0.0113 | – | 0.014 | 0.0169 | 0.0214

Reference: BigSolDB 2.1
